Measured values reported in patent US8138189B2, “Substituted benzene compounds as modulators of the glucocorticoid receptor” (Hoffman-La Roche Inc., priority 2009, dated 2012).

Tests used:
[1] = target: T1, full length human recombinant glucocorticoid receptor (Homo sapiens, UniProt P04150); test: Glucocorticoid Receptor Binding Assay (fluorescence polarization competitor assay, Fluormone GS Far Red tracer)
T1 construct: partially purified full length human recombinant glucocorticoid receptor; purchased Panvera/Invitrogen PV4302
T1 sequence (P04150 1-777): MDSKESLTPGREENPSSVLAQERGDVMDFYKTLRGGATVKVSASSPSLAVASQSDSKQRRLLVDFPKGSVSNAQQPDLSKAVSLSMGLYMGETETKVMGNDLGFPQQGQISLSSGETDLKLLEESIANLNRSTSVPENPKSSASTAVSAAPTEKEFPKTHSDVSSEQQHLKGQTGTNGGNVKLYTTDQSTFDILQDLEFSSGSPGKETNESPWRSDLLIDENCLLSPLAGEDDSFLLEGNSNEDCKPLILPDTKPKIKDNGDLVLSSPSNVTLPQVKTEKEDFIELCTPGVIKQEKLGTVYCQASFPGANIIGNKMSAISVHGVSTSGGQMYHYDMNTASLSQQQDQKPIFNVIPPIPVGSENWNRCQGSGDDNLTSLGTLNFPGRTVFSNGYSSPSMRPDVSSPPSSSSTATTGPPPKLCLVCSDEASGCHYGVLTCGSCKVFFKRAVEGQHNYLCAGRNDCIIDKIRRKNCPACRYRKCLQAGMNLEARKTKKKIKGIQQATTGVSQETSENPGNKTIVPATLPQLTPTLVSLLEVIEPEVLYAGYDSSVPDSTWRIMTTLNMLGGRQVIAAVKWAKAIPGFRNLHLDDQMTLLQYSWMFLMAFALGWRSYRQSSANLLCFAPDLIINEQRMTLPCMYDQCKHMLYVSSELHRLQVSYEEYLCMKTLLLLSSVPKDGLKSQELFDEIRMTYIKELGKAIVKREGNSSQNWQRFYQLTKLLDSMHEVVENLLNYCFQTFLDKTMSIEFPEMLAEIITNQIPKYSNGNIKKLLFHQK
How it was run: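 Partially purified full-length recombinant human GR with a stabilizing coactivator peptide was incubated with Fluormone GS Far Red tracer and serially diluted compound for 3 h at 22 °C in the dark, pH 7.4. Fluorescence polarization was read at 610-660 nm. IC50 came from sigmoidal fitting, and Ki from Cheng-Prusoff.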

Cushing's patients = conditions: chronic; cited from earlier work
ob/ob mice = conditions: cited from earlier work
normal volunteers = conditions: acute; cited from earlier work
db/db mice = conditions: cited from earlier work
[2] = tested on: Hypothalamus-Pituitary gland-Adrenal gland (HPA) axis; conditions: cited from earlier work

Structure (SMILES) | Ki [1] [nM] | also measured
COC(=O)c1ccc(Oc2ccc(C(C)C(O)(c3ccnc(Cl)c3)C(F)(F)F)c(Cl)c2)nc1 (stereo not shown) [Example 118, 6-{3-Chloro-4-[2-(2-chloro-pyridin-4-yl)-3,3,3-trifluoro-2-hydroxy-1-methyl-propyl]-phenoxy}-nicotinic acid methyl ester] | 10.8 | 
CC(c1ccc(Oc2ccc(C(=O)O)cn2)cc1Cl)C(O)(c1ccnc(Cl)c1)C(F)(F)F (stereo not shown) [Example 119, 6-{3-Chloro-4-[2-(2-chloro-pyridin-4-yl)-3,3,3-trifluoro-2-hydroxy-1-methyl-propyl]-phenoxy}-nicotinic acid] | 20.4 | 
COc1cc(C(=O)O)ccc1COc1ccc(C(C)C(O)(c2cnn3ccccc23)C(F)(F)F)c(Cl)c1 (stereo not shown) [Example 129, 4-[3-Chloro-4-(3,3,3-trifluoro-2-hydroxy-1-methyl-2-pyrazolo[1,5-a]pyridin-3-yl-propyl)-phenoxymethyl]-3-methoxy-benzoic acid] | 267 | 
COc1cc(Oc2ccc(Cl)c(C(C)C(O)(c3ccnc(Cl)c3)C(F)(F)F)c2)ccc1C(=O)O (stereo not shown) [Example 131, 4-{4-Chloro-3-[2-(2-chloro-pyridin-4-yl)-3,3,3-trifluoro-2-hydroxy-1-methyl-propyl]-phenoxy}-2-methoxy-benzoic acid] | 437 | 
COC(=O)c1ccc(-c2ccc([C@H](C)[C@](O)(c3ccc(=O)n(C)c3)C(F)(F)F)c(Cl)c2)cc1F [Example 166, 3′-Chloro-3-fluoro-4′-[3,3,3-trifluoro-2-hydroxy-1-methyl-2-(1-methyl-6-oxo-1,6-didydro-pyridin-3-yl)-propyl]-biphenyl-4-carboxylic acid methyl ester] | 6.2 | 
COC(=O)c1ccc(-c2ccc([C@H](C)[C@](O)(c3ccc(=O)n(C)c3)C(F)(F)F)c(Cl)c2)cc1Cl [Example 168, 3,3′-Dichloro-4′-[3,3,3-trifluoro-2-hydroxy-1-methyl-2-(1-methyl-6-oxo-1,6-dihydro-pyridin-3-yl)-propyl]-propylphiphenyl-4-carboxylic acid methyl ester] | 2.6 | 
Cc1cc([C@](O)([C@H](C)c2ccc(Oc3ccc(C(=O)O)c(Cl)c3)cc2Cl)C(F)(F)F)sc1C#N [Example 235, 2-Chloro-4-{3-chloro-4-[2-(5-cyano-4-methyl-thiophen-2-yl)-3,3,3-trifluoro-2-hydroxy-1-methyl-propyl]-phenoxy}-benzoic acid] | 1.8 | 
Cc1cc([C@@](O)([C@@H](C)c2ccc(Oc3ccc(C(=O)O)cc3Cl)cc2Cl)C(F)(F)F)cn(C)c1=O [Example 244, 3-Chloro-4-{3-chloro-4-[(1S,2S)-2-(1,5-dimethyl-6-oxo-1,6-dihydro-pyridin-3-yl)-3,3,3-trifluoro-2-hydroxy-1-methyl-propyl]-phenoxy}-benzoic acid] | 601 | 
Cc1cc([C@@](O)([C@@H](C)c2ccc(Oc3ccc(C(=O)O)cn3)cc2Cl)C(F)(F)F)cn(C)c1=O [Example 246, 6-{3-Chloro-4-[(1S,2S)-2-(1,5-dimethyl-6-oxo-1,6-dihydro-pyridin-3-yl)-3,3,3-trifluoro-2-hydroxy-1-methyl-propyl]-phenoxy}-nicotinic acid] | 0.5 | 
Cc1cc([C@](O)([C@H](C)c2ccc(Oc3ccc(C(=O)O)cn3)cc2Cl)C(F)(F)F)cn(C)c1=O [Example 247, 6-{3-Chloro-4-[(1R,2R)-2-(1,5-dimethyl-6-oxo-1,6-dihydro-pyridin-3-yl)-3,3,3-trifluoro-2-hydroxy-1-methyl-propyl]-phenoxy}-nicotinic acid] | 14.8 | 
Cc1cc([C@](O)([C@H](C)c2ccc(Oc3ccc(C(=O)O)c(F)c3)cc2Cl)C(F)(F)F)cn(C)c1=O [Example 249, 4-{3-Chloro-4-[(1R,2R)-2-(1,5-dimethyl-6-oxo-1,6-dihydro-pyridin-3-yl)-3,3,3-trifluoro-2-hydroxy-1-methyl-propyl]-phenoxy}-2-fluoro-benzoic acid] | 4.2 | 
CC#C[C@]1(O)CC[C@H]2[C@@H]3CCC4=CC(=O)CCC4=C3[C@@H](c3ccc(N(C)C)cc3)C[C@@]21C [RU486/mifepristone, mifepristone] |  | plasmatic HbA1c (Cushing's patients): decrease of plasmatic HbA1c; fasting plasma glucose (ob/ob mice): normalizes fasting plasma glucose; fasting plasma glucose (normal volunteers): decrease of fasting plasma glucose; activity of gluconeogenic enzymes (db/db mice): normalizes; effect on HPA axis / endogenous corticosteroids circulating in the blood ([2]; feed-back mechanism): increase of endogenous corticosteroids circulating in the blood; adrenal insufficiency symptoms ([2]; long term treatment (up to 1 year)): induces some adrenal insufficiency symptoms

Second part, led by results:

Ki [1] [nM] | Structure (SMILES) | also measured
111 | CC(c1ccc(Oc2ncc(C(=O)O)cn2)cc1Cl)C(O)(c1ccnc(Cl)c1)C(F)(F)F (stereo not shown) [Example 117, 2-{3-Chloro-4-[2-(2-chloro-pyridin-4-yl)-3,3,3-trifluoro-2-hydroxy-1-methyl-propyl]-phenoxy}-pyrimidine-5-carboxylic acid] | 
1.6 | C[C@H](c1ccc(Oc2ccc(OCC(=O)O)cc2)cc1Cl)[C@@](O)(c1ccc(=O)n(C)c1)C(F)(F)F [Example 160] | 
45.9 | C[C@@H](c1ccc(-c2ccc(C(=O)O)c(F)c2)cc1Cl)[C@](O)(c1ccc(=O)n(C)c1)C(F)(F)F [Example 167, 3′-Chloro-3-fluoro-4′-[3,3,3-trifluoro-2-hydroxy-1-methyl-2-(1-methyl-6-oxo-1,6-dihydro-pyridin-3-yl)-propyl]-propylphiphenyl-4-carboxylic acid] | 
0.4 | Cc1cc([C@](O)([C@H](C)c2ccc(Oc3ccc(C(=O)O)cc3Cl)cc2Cl)C(F)(F)F)cn(C)c1=O [Example 245, 3-Chloro-4-{3-chloro-4-[(1R,2R)-2-(1,5-dimethyl-6-oxo-1,6-dihydro-pyridin-3-yl)-3,3,3-trifluoro-2-hydroxy-1-methyl-propyl]-phenoxy}-benzoic acid] | 
0.5 | Cc1cc([C@@](O)([C@@H](C)c2ccc(Oc3ccc(C(=O)O)c(F)c3)cc2Cl)C(F)(F)F)cn(C)c1=O [Example 248, 4-{3-Chloro-4-[(1S,2S)-2-(1,5-dimethyl-6-oxo-1,6-dihydro-pyridin-3-yl)-3,3,3-trifluoro-2-hydroxy-1-methyl-propyl]-phenoxy}-2-fluoro-benzoic acid] | 
